Like-named read-outs stand apart in the source and are kept apart here.
Legend:
[1] = tested on: Oryza sativa; test: Phytotoxicity to rice (direct-seeded and transplanted) in paddy condition, greenhouse pot test; type: in vivo; conditions: visual rating after two weeks; for Phytotoxicity, Oryza sativa, Seed: direct-seeded rice, treated 5 days after sowing; for Phytotoxicity, Oryza sativa, Transplanted: transplanted rice seedlings, treated 5 days after transplanting
Text: (§1) Pots having a surface area of 150 cm^2 were filled with a small amount of fertilizer and sterilized paddy field soil in a muddy state with a depth of 5 cm. Five (5) seeds of pre-germinated rice were directly sown on the soil surface and three (3) rice seedlings (2˜3 leaves) prepared in advance were transplanted in a depth of 2 cm in each pot. In another pot, seeds of barnyardgrass were sown and incorporated into the surface layer of soil. After sowing and transplanting of rice plant and sowing of barnyardgrass, the pots were flooded with water 3 cm deep and kept in a greenhouse. The rice plant was treated with the chemicals 5 days after sowing or transplanting, and barnyardgrass was treated with the chemicals at the pre-emergence (5 days after from sowing) and post-emergence stage (at the three-leaf stage, usually after 15 days from sowing).
(§2) Suitable herbicidal compositions were prepared by mixing and dissolving 1 part by weight of the active compound with 5 parts by weight of acetone and 1 part by weight of alkylaryl polyglycolether as an emulsifier and then diluting with water to the predetermined concentration. Application was made by dropping the herbicide solutions onto the water surface of the pots.

[2] = tested on: Echinochloa crus-galli; test: Herbicidal activity to barnyardgrass in paddy condition, pre- and post-emergence, greenhouse pot test; type: in vivo; conditions: Echinochloa crus-galli, 336 h, visual rating after two weeks
Text: as §1, §2

[3] = 80 g/ha, 0 = none, 100 = complete death
[4] = post-emergence, three-leaf stage, read-out: Herbicidal activity, Echinochloa crus-galli, Post-emergence (3-Leaf stage)
[5] = pre-emergence (5 days after sowing), read-out: Herbicidal activity, Echinochloa crus-galli, Pre-emergence
[6] = pre-emergence (5 days after sowing), 0 = no activity, 100 = complete death, read-out: Herbicidal activity, Echinochloa crus-galli, Pre-emergence

| SMILES | Phytotoxicity, Oryza sativa, Seed ([1]; 10 g/ha) [%] | Phytotoxicity, Oryza sativa, Transplanted ([1]; 10 g/ha) [%] | Phytotoxicity, Oryza sativa, Seed ([1]; 20 g/ha) [%] | Phytotoxicity, Oryza sativa, Transplanted ([1]; 20 g/ha) [%] | Phytotoxicity, Oryza sativa, Seed ([1]; 40 g/ha) [%] | Phytotoxicity, Oryza sativa, Transplanted ([1]; 40 g/ha) [%] | Phytotoxicity, Oryza sativa, Seed [1, 3] [%] | Phytotoxicity, Oryza sativa, Transplanted ([1]; 80 g/ha) [%] | pest or weed control at 5 g/ha [2, 4] [%] | pest or weed control at 5 g/ha [2, 5] [%] | pest or weed control at 10 g/ha [2, 4] [%] | pest or weed control at 10 g/ha [2, 5] [%] | pest or weed control at 20 g/ha [2, 4] [%] | pest or weed control at 20 g/ha [2, 5] [%] | pest or weed control at 30 g/ha [2, 4] [%] | pest or weed control at 30 g/ha [2, 6] [%] |
| --- | --- | --- | --- | --- | --- | --- | --- | --- | --- | --- | --- | --- | --- | --- | --- | --- |
| COc1cc(OC)nc(NC(=O)NS(=O)(=O)c2cccnc2[C@@H](OC(C)=O)[C@H](C)F)n1 [Standard Compound D, reference compound] | 10 | 0 | 20 | 10 | 30 | 20 | 60 | 50 | 50 | 30 | 90 | 100 | 100 | 100 | 100 | 100 |
| COCC(=O)O[C@H](c1nccc(C)c1S(=O)(=O)NC(=O)Nc1nc(OC)cc(OC)n1)[C@H](C)F [Com. 7] | 0 | 0 | 0 | 0 | 20 | 10 | 30 | 20 | 50 | 60 | 80 | 80 | 95 | 90 | 100 | 100 |
| COc1cc(OC)nc(NC(=O)NS(=O)(=O)c2cccnc2[C@@H](OC(=O)CO)[C@H](C)F)n1 [Com. 1] | 0 | 0 | 10 | 10 | 30 | 10 | 30 | 20 | 60 | 50 | 80 | 80 | 90 | 90 | 100 | 90 |
| COc1cc(OC)nc(NC(=O)NS(=O)(=O)c2cccnc2[C@@H](O)[C@H](C)F)n1 [Standard Compound C, reference compound] | 10 | 10 | 20 | 20 | 30 | 30 | 70 | 50 | 60 | 40 | 90 | 100 | 100 | 100 | 100 | 100 |
| COc1cc(OC)nc(NC(=O)NS(=O)(=O)c2ccccc2[C@@H](OC(C)=O)[C@H](C)F)n1 [Standard Compound B, reference compound] | 30 | 20 | 40 | 20 | 50 | 40 | 70 | 60 | 50 | 50 | 90 | 100 | 90 | 100 | 100 | 100 |

— US6806229B1, “Herbicidally active pyridine sulfonyl urea derivatives” (LG Life Sciences, priority 2003, dated 2004)
